# Measured values from patent US8865738B2, “5-membered heterocyclic compound cyclopenta[C]pyrrolylalkylcarbamate derivatives, preparation thereof, and therapeutic use thereof” (Sanofi, priority 2009, dated 2014).
# Columns and labels:
# [1] = biological target: T1, FAAH (Fatty Acid Amide Hydrolase) (Mus musculus, UniProt O08914); test: radioenzymatic test, hydrolysis of anandamide [ethanolamine 1-3H] with FAAH (protocol 1); format: biochemical; settings: mouse brain membrane homogenate, anandamide 10 μM, 20 min preincubation at 25° C., read-out: IC50 (concentration that inhibits 50% of the control enzymatic activity of FAAH)
# T1 construct: The membrane homogenates are prepared extemporaneously by homogenizing the tissues; from tissue; host or cells: mouse brain (minus the cerebellum), membrane homogenate
# T1 sequence (O08914 1-579): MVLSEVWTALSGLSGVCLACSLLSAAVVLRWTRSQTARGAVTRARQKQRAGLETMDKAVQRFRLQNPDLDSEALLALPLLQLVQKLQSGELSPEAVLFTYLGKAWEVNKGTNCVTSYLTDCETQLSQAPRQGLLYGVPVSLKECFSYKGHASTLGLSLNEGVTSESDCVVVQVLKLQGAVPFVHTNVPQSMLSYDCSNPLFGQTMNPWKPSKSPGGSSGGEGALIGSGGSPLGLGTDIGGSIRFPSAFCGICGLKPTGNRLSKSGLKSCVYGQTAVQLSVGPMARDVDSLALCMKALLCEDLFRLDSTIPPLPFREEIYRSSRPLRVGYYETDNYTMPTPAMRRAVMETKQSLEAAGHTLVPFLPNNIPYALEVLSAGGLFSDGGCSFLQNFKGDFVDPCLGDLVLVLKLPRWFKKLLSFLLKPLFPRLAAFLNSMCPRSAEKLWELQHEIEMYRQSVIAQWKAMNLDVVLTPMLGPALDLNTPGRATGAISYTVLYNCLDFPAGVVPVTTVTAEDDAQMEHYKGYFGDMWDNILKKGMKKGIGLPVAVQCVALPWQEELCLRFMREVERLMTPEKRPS
# Protocol: (§1) The compounds of the invention underwent pharmacological tests to determine their inhibitory effect on the enzyme FAAH (Fatty Acid Amide Hydrolase).
# Thus, mouse brains (minus the cerebellum) are removed and stored at −80° C. The membrane homogenates are prepared extemporaneously by homogenizing the tissues using a Precellys® machine in reaction buffer (10 mM Tris-HCl, pH=8, 150 mM NaCl and 1 mM ethylenediaminetetraacetic acid (EDTA)). The enzymatic reaction is performed in 96-well Multiscreen filtration plates in a final volume of 70 μl. Reaction buffer supplemented with fatty acid-free bovine serum albumin (BSA, 1 mg/ml) is used for the enzymatic reaction and the dilution of the compounds and of the anandamide [ethanolamine 1-^3H]. The reaction buffer containing BSA (43 μl/well), the diluted test compounds at various concentrations (7 μl/well containing 1% DMSO) and the membrane preparation (10 μl/well, i.e. 200 μg of tissue per test) are successively added to the wells. After preincubation for 20 minutes of the compounds with the enzyme at 25° C., the reaction is started by adding anandamide [ethanolamine 1-^3H](specific activity of 15-20 Ci/mmol) diluted with cold anandamide (10 μl/well, final concentration of 10 μM, 0.01 μCi per test). After incubation for 20 minutes at 25° C., the enzymatic reaction is stopped by adding a 5M solution of activated carbon prepared in 1.5M NaCl buffer and 0.5M HCl (50 μl/well). The mixture is stirred for 10 minutes then the aqueous phase containing the ethanolamine [1-^3H] is recovered by filtration under vacuum and counted by liquid scintillation.
# [2] = biological target: T1, FAAH (Fatty Acid Amide Hydrolase); test: fluorescent enzymatic test, hydrolysis of AAMC with FAAH (protocol 2); format: biochemical; settings: mouse brain homogenate, AAMC 10 μM, 40 min at 37° C., read-out: IC50 (concentration that inhibits 50% of the control enzymatic activity of FAAH)
# Protocol: as §1
# Thus, mouse brains (minus the cerebellum) are withdrawn and stored at −80° C. The brain homogenates are prepared extemporaneously by homogenizing the tissues using a Precellys® machine in reaction buffer (10 mM Tris-HCl, pH=8, 150 mM NaCl and 1 mM ethylenediamine-tetraacetic acid (EDTA)). The enzymatic reaction is performed in black polystyrene 384-well plates in a final volume of 50 μL. Reaction buffer supplemented with fatty acid-free bovine serum albumin (BSA, 1 mg/ml) is used for the enzymatic reaction, the dilution of the compounds and the dilution of the AAMC. Reaction buffer containing the BSA (25 μl/well), the diluted test compounds at various concentrations (5 μl/well containing 1% DMSO) and the membrane preparation (10 μL/well, i.e. 200 μg of tissue per test) are successively added to the wells. After preincubation for 20 minutes of the compounds with the enzyme at 25° C., the reaction is started by adding 10 μL of substrate per well (AAMC, final concentration of 10 μM). After incubation for 40 minutes at 37° C., the aminomethyl coumarin (AMC) produced is measured by fluorescent counting (Envision plate reader).
Structure (SMILES),IC50 [1],melting point,IC50 [2]
"O=C(NC[C@H]1C[C@@H]2CN(c3cccc(C(F)(F)F)n3)C[C@@H]2C1)OCc1cscn1 [Compound No. 1, thiazol-4-ylmethyl ({(3aR,5s,6aS)-2-[6-(trifluoro-methyl)pyrid-2-yl]octahydrocyclopenta[c]pyrrol-5-yl}methyl)carbamate (exo)]",200 nM,,
"O=C(NC[C@H]1C[C@@H]2CN(c3ccc(-c4ccc(F)cc4)cn3)C[C@@H]2C1)OCc1cscn1 [Compound No. 3, thiazol-4-ylmethyl ({(3aR,5s,6aS)-2-[5-(4-fluoro-phenyl)pyrid-2-yl]octahydrocyclopenta[c]pyrrol-5-yl}-methyl)carbamate (exo)]",0.98 nM,129 to 131 °C,
"Cn1ncnc1COC(=O)NC[C@H]1C[C@@H]2CN(c3cccc(-c4cncc(F)c4)n3)C[C@@H]2C1 [Compound No. 8, (1-methyl-1H-1,2,4-triazol-5-yl)methyl {[(3aR,5s,6aS)-2-(5′-fluoro-2,3′-bipyrid-6-yl)octahydrocyclopenta[c]-pyrrol-5-yl]methyl}carbamate (exo)]",1.1 nM,136 to 138 °C,
"CNC(=O)c1cc(COC(=O)NCC[C@@H]2C[C@@H]3CN(c4ccc(Br)cn4)C[C@@H]3C2)on1 [Compound No. 10, [3-(methylcarbamoyl)isoxazol-5-yl]methyl {2-[(3aR,5r,6aS)-2-(5-bromopyrid-2-yl)octahydrocyclopenta[c]-pyrrol-5-yl]ethyl}carbamate (endo)]",2.4 nM,157 to 159 °C,
"CNC(=O)c1cc(COC(=O)NC2C3CN(c4ccc5cc(F)ccc5n4)CC32)on1 (centres unmarked) [Compound No. 14, [3-(methylcarbamoyl)isoxazol-5-yl]methyl [3-(6-fluoro-quinolin-2-yl)-3-azabicyclo[3.1.0]hex-6-yl]carbamate]",,220 to 222 °C,12 nM
"Cn1cc(-c2ccc(N3CC4CC(CNC(=O)OCc5cscn5)CC4C3)nc2)cn1 [compound 4, thiazol-4-ylmethyl ({(3aR,5s,6aS)-2-[5-(1-methyl-1H-pyrazol-4-yl)pyrid-2-yl]octahydrocyclopenta[c]pyrrol-5-yl}methyl)carbamate (exo)]",8.5 nM,,
"Cn1ncnc1COC(=O)NC[C@H]1C[C@@H]2CN(c3ccc(-c4ccc(F)cc4)cn3)C[C@@H]2C1 [compound 7, (1-methyl-1H-1,2,4-triazol-5-yl)methyl ({(3aR,5s,6aS)-2-[5-(4-fluorophenyl)pyrid-2-yl]octahydrocyclopenta[c]-pyrrol-5-yl}methyl)carbamate (exo)]",170 nM,,
